Where only a bound is given, the exact number is not on record here.

In the experiment the target is T1, Androgen Receptor (AR) (Homo sapiens, UniProt P10275, T878A).
T1 construct: cell based immuno-fluorescence assay using the LNCaP prostate epithelial cell line; endogenous in cells; host or cells: LNCaP clone FGC (ATCC CRL-1740)
T1 sequence (P10275 1-920 T878A): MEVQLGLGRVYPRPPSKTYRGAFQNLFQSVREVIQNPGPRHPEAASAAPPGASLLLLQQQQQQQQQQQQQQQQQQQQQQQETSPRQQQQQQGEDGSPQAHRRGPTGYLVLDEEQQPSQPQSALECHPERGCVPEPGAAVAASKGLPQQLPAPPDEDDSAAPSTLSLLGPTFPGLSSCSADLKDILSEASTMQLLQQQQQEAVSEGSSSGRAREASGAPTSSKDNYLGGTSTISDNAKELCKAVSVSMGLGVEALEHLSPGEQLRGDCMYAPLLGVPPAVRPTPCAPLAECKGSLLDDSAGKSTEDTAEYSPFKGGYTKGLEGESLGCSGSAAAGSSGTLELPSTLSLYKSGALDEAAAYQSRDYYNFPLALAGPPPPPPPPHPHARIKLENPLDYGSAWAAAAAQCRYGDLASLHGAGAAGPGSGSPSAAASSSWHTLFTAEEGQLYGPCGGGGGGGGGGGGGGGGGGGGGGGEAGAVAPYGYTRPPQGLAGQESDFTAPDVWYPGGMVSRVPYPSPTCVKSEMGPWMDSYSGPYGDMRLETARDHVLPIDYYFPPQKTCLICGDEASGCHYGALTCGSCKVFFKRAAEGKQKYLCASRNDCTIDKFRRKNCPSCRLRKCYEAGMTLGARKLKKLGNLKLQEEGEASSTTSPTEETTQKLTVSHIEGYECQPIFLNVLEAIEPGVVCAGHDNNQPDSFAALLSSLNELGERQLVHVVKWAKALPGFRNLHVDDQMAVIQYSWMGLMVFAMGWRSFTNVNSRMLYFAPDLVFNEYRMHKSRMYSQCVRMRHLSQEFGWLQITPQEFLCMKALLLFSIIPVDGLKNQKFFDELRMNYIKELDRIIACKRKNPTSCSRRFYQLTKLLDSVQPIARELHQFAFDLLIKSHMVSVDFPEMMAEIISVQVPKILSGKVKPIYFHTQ
Briefly: LNCaP Androgen Receptor Down-regulation Cell Assay (immunofluorescence end point). Type of experiment: cell-based. The following applies: LNCaP prostate carcinoma cells, compound incubation 20-22 hours, 50% reduction of the AR signal; read-out: Androgen Receptor Down-regulation Assay (a) IC50/μM. In outline:
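AR loss reported as IC50 from curve fits of fluorescence dose-response data, with AR immunostained and read by laser-scanning cytometry. Compound exposure was 20-22 h at 37° C in LNCaP cells grown in 5% charcoal-stripped FBS and plated overnight beforehand.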
Turning to `CC(F)(F)c1nnc2ccc(N3CCN(Cc4cccc(C#N)c4)CC3)nn12` [Example 242], the DC50 is 7.4 µM.
Turning to `CC(F)(F)c1nnc2ccc(N3CCN(Cc4cccc(F)c4)CC3)nn12` [Example 243], the DC50 was found to be 3.7 µM.
In the case of `CCC(F)(F)c1nnc2ccc(N3CCN(Cc4cccc(C#N)c4)CC3)nn12` [Example 246] it was 23 µM.
To `FC(F)c1nnc2ccc(N3CCN(Cc4cccc(Cl)c4)CC3)nn12` [Example 248] belongs 1.7 µM; to `Fc1ccc(CN2CCN(c3ccc4nnc(C(F)F)n4n3)CC2)c(F)c1` [Example 249], 6.3 µM.
To `Fc1ccc(CN2CCN(c3ccc4nnc(C(F)F)n4n3)CC2)cc1F` [Example 250] belongs 4.9 µM.
On to `Fc1cc(F)cc(CN2CCN(c3ccc4nnc(C(F)F)n4n3)CC2)c1` [Example 251], for which the DC50 was found to be 9.3 µM.
For the compound `Fc1cccc(F)c1CN1CCN(c2ccc3nnc(C(F)F)n3n2)CC1` [Example 252], the DC50 was 8.9 µM.
In the case of `COc1ccc(CN2CCN(c3ccc4nnc(C(F)F)n4n3)CC2)c(F)c1` [Example 253] it was 3.7 µM.
Regarding `FC(F)c1nnc2ccc(N3CCN(Cc4cccc(C(F)(F)F)c4)CC3)nn12` [Example 255], the DC50 is 1.8 µM.
With `Fc1cccc(CN2CCN(c3ccc4nnc(C(F)F)n4n3)CC2)c1F` [Example 256], the DC50 was 7.4 µM.
To `COc1cc(CN2CCN(c3ccc4nnc(C(F)F)n4n3)CC2)ccc1F` [Example 257] belongs 9 µM; to `COc1ccc(F)c(CN2CCN(c3ccc4nnc(C(F)F)n4n3)CC2)c1` [Example 258], 6.4 µM.
In the case of `Fc1ccc(F)c(CN2CCN(c3ccc4nnc(C(F)F)n4n3)CC2)c1` [Example 259] it was 4.8 µM.
Take `N#Cc1cc(CN2CCN(c3ccc4nnc(C(F)F)n4n3)CC2)ccc1F` [Example 260]: the DC50 stood at 5.6 µM.
With `COc1ccc(CN2CCN(c3ccc4nnc(C(F)F)n4n3)CC2)cc1F` [Example 261], the DC50 worked out at 7.9 µM.
In the case of `N#Cc1ccc(CN2CCN(c3ccc4nnc(C(F)F)n4n3)CC2)c(F)c1` [Example 262] it was 25 µM.
In the case of `FC(F)c1nnc2ccc(N3CCN(Cc4csc5ccccc45)CC3)nn12` [Example 264] it was 0.95 µM.
To `FC(F)c1nnc2ccc(N3CCN(Cc4c[nH]c5ccccc45)CC3)nn12` [Example 265] belongs 3.8 µM; to `FC(F)c1nnc2ccc(N3CCC(c4c[nH]c5ccccc45)CC3)nn12` [Example 266, 3-(difluoromethyl)-6-[4-(1H-indol-3-yl)piperidin-1-yl][1,2,4]triazolo[4,3-b]pyridazine], 0.63 µM.
Take `COc1cccc(OC2CCN(c3ccc4nnc(C(F)F)n4n3)CC2)c1` [Example 267]: the DC50 was determined as 0.85 µM.
In the case of `Fc1cccc(OC2CCN(c3ccc4nnc(C(F)F)n4n3)CC2)c1` [Example 268] it was 0.91 µM.
To `C[C@H](c1ccc(F)cc1)N1CCN(c2ccc3nnc(C(F)F)n3n2)CC1` [Example 269, 3-(difluoromethyl)-6-[4-[(1R)-1-(4-fluorophenyl)ethyl]piperazin-1-yl][1,2,4]triazolo[4,3-b]pyridazine] belongs 2 µM.
`CC(C)(c1ccc(F)cc1)N1CCN(c2ccc3nnc(C(F)F)n3n2)CC1` [Example 271, 3-(difluoromethyl)-6-[4-[1-(4-fluorophenyl)-1-methylethyl]piperazin-1-yl][1,2,4]triazolo[4,3-b]pyridazine]: the DC50 was 1.8 µM.
For the compound `Fc1cccc(CN2CC=C(c3ccc4nnc(C(F)(F)F)n4n3)CC2)c1` [Example 272, 6-[1-(3-fluorobenzyl)-1,2,3,6-tetrahydropyridin-4-yl]-3-(trifluoromethyl)-[1,2,4]triazolo[4,3-b]pyridazine], the DC50 was 1.8 µM.
In the case of `Fc1ccc(-c2nc(N3CCN(c4ccc5nnc(C(F)(F)F)n5n4)CC3)no2)cc1` [Example 274] it was 6.1 µM.
In the case of `FC(F)(F)c1nnc2ccc(N3CCN(c4noc(-c5ccccc5)n4)CC3)nn12` [Example 275] it was 6 µM.
For `N#Cc1ccc(-c2nc(N3CCN(c4ccc5nnc(C(F)(F)F)n5n4)CC3)no2)cc1` [Example 277], the DC50 was 2 µM.
Regarding `N#Cc1ccc2[nH]cc(CN3CCN(c4ccc5nnc(C(F)(F)F)n5n4)CC3)c2c1` [Example 278], the DC50 turned out to be 0.65 µM.
To `FC(F)(F)c1nnc2ccc(N3CCN(Cc4c[nH]c5ccc(Cl)cc45)CC3)nn12` [Example 280] belongs 0.78 µM; to `FC(F)(F)c1nnc2ccc(N3CCN(Cc4c[nH]c5ccc(Br)cc45)CC3)nn12` [Example 281], 0.8 µM.
`FC(F)(F)c1nnc2ccc(N3CCN(Cc4c[nH]c5cccc(Cl)c45)CC3)nn12` [Example 282]: the DC50 was found to be 2.4 µM.
In the case of `Fc1ccc2[nH]cc(CN3CCN(c4ccc5nnc(C(F)(F)F)n5n4)CC3)c2c1` [Example 283] it was 0.78 µM; in that of `Fc1ccc2c(CN3CCN(c4ccc5nnc(C(F)(F)F)n5n4)CC3)c[nH]c2c1` [Example 284], 0.98 µM; in that of `FC(F)(F)c1nnc2ccc(N3CCN(Cc4n[nH]c5ccccc45)CC3)nn12` [Example 285, 6-[4-(1H-indazol-3-ylmethyl)piperazin-1-yl]-3-(trifluoromethyl)[1,2,4]triazolo[4,3-b]pyridazine], 2.7 µM.
In the case of `N#Cc1ccc2[nH]cc(CN3CCN(c4ccc5nnc(C(F)F)n5n4)CC3)c2c1` [Example 286] it was 8.5 µM; in that of `FC(F)c1nnc2ccc(N3CCN(Cc4c[nH]c5ccc(Cl)cc45)CC3)nn12` [Example 287], 2 µM; in that of `FC(F)c1nnc2ccc(N3CCN(Cc4c[nH]c5ccc(Br)cc45)CC3)nn12` [Example 288], 3.3 µM.
In the case of `FC(F)c1nnc2ccc(N3CCN(Cc4c[nH]c5cccc(Cl)c45)CC3)nn12` [Example 289] it was 2.7 µM; in that of `Fc1ccc2[nH]cc(CN3CCN(c4ccc5nnc(C(F)F)n5n4)CC3)c2c1` [Example 290], 5.8 µM.
As for `FC(F)c1nnc2ccc(N3CCN(Cc4c(Cl)[nH]c5ccccc45)CC3)nn12` [Example 291], the DC50 is more than 9.7 µM.
To `Fc1ccc2c(CN3CCN(c4ccc5nnc(C(F)F)n5n4)CC3)c[nH]c2c1` [Example 292] belongs 7 µM.
Consider `FC(F)(F)c1nnc2ccc(N3CCC(COC4CCOCC4)CC3)nn12` [Example 294, 6-[4-[(tetrahydro-2H-pyran-4-yloxy)methyl]piperidin-1-yl]-3-(trifluoromethyl)[1,2,4]triazolo[4,3-b]pyridazine], for which the DC50 was 9.5 µM.
In the case of `FC(F)(F)c1nnc2ccc(N3CCC(COCC4CC4)CC3)nn12` [Example 295] it was 3.4 µM.
As for `COCCOCC1CCN(c2ccc3nnc(C(F)(F)F)n3n2)CC1` [Example 296], the DC50 turned out to be 2.1 µM.
For the compound `CC(C)OCC1CCN(c2ccc3nnc(C(F)(F)F)n3n2)CC1` [Example 298], the DC50 was found to be 5.7 µM.
To `FC(F)(F)c1nnc2ccc(N3CCC(c4noc(-c5cccc(Cl)c5)n4)CC3)nn12` [Example 299] belongs 0.84 µM.
To `Fc1ccc(-c2nc(C3CCN(c4ccc5nnc(C(F)(F)F)n5n4)CC3)no2)cc1` [Example 300] belongs 1 µM; to `FC(F)(F)c1nnc2ccc(N3CCC(c4noc(-c5ccccc5)n4)CC3)nn12` [Example 301], 1.8 µM; to `Fc1cccc(-c2nc(C3CCN(c4ccc5nnc(C(F)(F)F)n5n4)CC3)no2)c1` [Example 302], 1.1 µM.
To `N#Cc1cccc(-c2nc(C3CCN(c4ccc5nnc(C(F)(F)F)n5n4)CC3)no2)c1` [Example 303] belongs 5.8 µM; to `FC(F)(F)c1nnc2ccc(N3CCC(OCC4CC4)CC3)nn12` [Example 304, 6-[4-(cyclopropylmethoxy)piperidin-1-yl]-3-(trifluoromethyl)[1,2,4]triazolo[4,3-b]pyridazine], 1.8 µM; to `C[C@H](c1ccc(C#N)cc1)N1CCN(c2ccc3nnc(C(F)(F)F)n3n2)CC1` [Example 307, 4-[(1R)-1-[4-[3-(trifluoromethyl)[1,2,4]triazolo[4,3-b]pyridazin-6-yl]piperazin-1-yl]ethyl]benzonitrile], 3.4 µM.
Regarding `C[C@H](c1ccc(F)cc1)N1CCN(c2ccc3nnc(C(F)(F)F)n3n2)CC1` [Example 308, 6-[4-[(1R)-1-(4-fluorophenyl)ethyl]piperazin-1-yl]-3-(trifluoromethyl)[1,2,4]triazolo[4,3-b]pyridazine], the DC50 was 1.4 µM.

These data come from patent US8003649B2 (AstraZeneca AB, priority 2007, dated 2011).
